Experiment: xn = mol fraction of the nth substance listed

CCC(C)O (stereo unspecified) + O
Conditions	viscosity [mPa·s]
293.15 K, 100 kPa, x1 = 0.58	3.807
296 K, 101 kPa, x2 = 0.1	3.008
296 K, 101 kPa, x2 = 0.68	3.67
297 K, 101 kPa, x2 = 0.3	2.923
297 K, 101 kPa, x2 = 0.4	3.074
297 K, 101 kPa, x2 = 0.5	3.242
297 K, 101 kPa, x2 = 0.6	3.416
303 K, 101 kPa, x1 = 0.01	0.9465
303 K, 101 kPa, x2 = 0.1	2.363
303 K, 101 kPa, x2 = 0.3	2.38
303 K, 101 kPa, x2 = 0.4	2.495
303 K, 101 kPa, x2 = 0.5	2.625
303 K, 101 kPa, x2 = 0.6	2.759
303 K, 101 kPa, x2 = 0.68	2.853
303 K, 101 kPa, x2 = 0.98	1.103
304 K, 101 kPa, x2 = 0.97	1.229
305 K, 101 kPa, x2 = 0.2	2.185
313 K, 101 kPa, x1 = 0.01	0.7564
313 K, 101 kPa, x2 = 0.1	1.715
313 K, 101 kPa, x2 = 0.2	1.702
313 K, 101 kPa, x2 = 0.3	1.739
313 K, 101 kPa, x2 = 0.4	1.815
313 K, 101 kPa, x2 = 0.5	1.903
313 K, 101 kPa, x2 = 0.6	1.993
313 K, 101 kPa, x2 = 0.68	2.06
313 K, 101 kPa, x2 = 0.97	0.97
313 K, 101 kPa, x2 = 0.98	0.8638
323 K, 101 kPa, x1 = 0.01	0.622
323 K, 101 kPa, x2 = 0.1	1.28
323 K, 101 kPa, x2 = 0.2	1.28
323 K, 101 kPa, x2 = 0.3	1.312
323 K, 101 kPa, x2 = 0.4	1.364
323 K, 101 kPa, x2 = 0.5	1.427
323 K, 101 kPa, x2 = 0.6	1.492
323 K, 101 kPa, x2 = 0.68	1.541
323 K, 101 kPa, x2 = 0.97	0.773
323 K, 101 kPa, x2 = 0.98	0.6986
323.15 K, 100 kPa, x1 = 0.02	1.324
323.15 K, 100 kPa, x1 = 0.58	1.517

O=C[C@H](O)[C@H](O)[C@H](O)CO + O
298.15 K, 101 kPa
Conditions	viscosity [mPa·s]
x1 = 0.003513	0.95
x1 = 0.01898	1.292

Nc1ccccc1Cl + COc1ccccc1
viscosity [mPa·s], 101 kPa
Conditions	x2 = 0.1009	x2 = 0.1969	x2 = 0.2948	x2 = 0.3986	x2 = 0.4961	x2 = 0.5977	x2 = 0.6935	x2 = 0.7952	x2 = 0.9001
298.15 K	2.72	2.454	2.19	1.958	1.746	1.566	1.404	1.27	1.124
303.15 K	2.42	2.196	1.969	1.762	1.583	1.427	1.285	1.156	1.044
308.15 K	2.162	1.971	1.772	1.595	1.438	1.302	1.176	1.064	0.9578
313.15 K	1.939	1.773	1.6	1.446	1.309	1.189	1.08	0.9804	0.8856

CCCCOCCOCCO + O
viscosity [mPa·s], 101 kPa
Conditions	293.15 K	303.15 K	313.15 K	323.15 K
x1 = 0.01221	1.52	1.15	0.908	0.738
x1 = 0.02709	2.26	1.64	1.27	1.02
x1 = 0.04539	3.18	2.31	1.76	1.38
x1 = 0.0689	4.35	3.1	2.32	1.79
x1 = 0.09981	5.57	3.93	2.88	2.19
x1 = 0.1428	6.78	4.74	3.44	–
x1 = 0.2062	7.94	–	3.88	2.87
x1 = 0.3078	8.42	5.78	–	3.07
x1 = 0.4	–	–	–	3.195
x1 = 0.4037	8.24	5.75	–	3.08
x1 = 0.5015	7.84	5.55	4.04	3.02
x1 = 0.6107	7.35	5.27	3.86	2.91
x1 = 0.705	6.94	5	3.7	2.81
x1 = 0.7958	6.56	4.76	3.54	2.71
x1 = 0.8932	6.2	4.49	3.38	2.61

Cc1cccc(C)c1 + CCCCCCO
101 kPa
Conditions	viscosity [mPa·s]
303.15 K, x2 = 0.2002	0.683
313.15 K, x2 = 0.5	0.965
323.15 K, x2 = 0.4001	0.693

CC(O)CC(C)(C)O (stereo unspecified) + Nc1ccccc1
viscosity [mPa·s], 101 kPa
Conditions	x1 = 0.0963	x1 = 0.1952	x1 = 0.2931	x1 = 0.3958	x1 = 0.4941	x1 = 0.5915	x1 = 0.6855	x1 = 0.8047	x1 = 0.8966
308.15 K	3.187	3.549	4.028	4.615	5.519	6.694	8.195	10.82	14.34
318.15 K	2.348	2.62	3.031	3.543	4.32	5.405	6.826	9.45	12.55

From the CheMixHub viscosity set
